Experimental data: US20080033057A1, “Hexahydro-isoalpha acid based protein kinase modulation cancer treatment” (Metaproteomics, LLC, priority 2006, published 2008)
Marks after values point to notes of the source that are not given here.

Legend:
3T3-L1 adipocytes [1] = test: Lipogenesis (Oil Red O / BODIPY) in 3T3-L1 adipocytes; format: cell-based, murine; details: hops compounds 10, 5, 4 or 2 μg/ml; spent hops 50 μg/ml
Experimental: Prior to experiments, cells were cultured in DMEM containing 10% FBS-HI added 50 units penicillin/ml and 50 μg streptomycin/ml, and maintained in log phase prior to experimental setup. Cells were grown in a 5% CO2 humidified incubator at 37° C. Components of the pre-confluent medium included (1) 10% FBS/DMEM containing 4.5 g glucose/L; (2) 50 U/ml penicillin; and (3) 50 μg/ml streptomycin. Growth medium was made by adding 50 ml of heat inactivated FBS and 5 ml of penicillin/streptomycin to 500 ml DMEM. This medium was stored at 4° C. Before use, the medium was warmed to 37° C. in a water bath.
T3-T1 cells were seeded at an initial density of 6×10^4 cells/cm^2 in 24-well plates. For two days, the cells were allowed grow to reach confluence. Following confluence, the cells were forced to differentiate into adipocytes by the addition of differentiation medium; this medium consisted of (1) 10% FBS/DMEM (high glucose); (2) 0.5 mM methylisobutylxanthine; (3) 0.5 μM dexamethasone and (4) 10 μg/ml insulin (MDI medium). After three days, the medium was changed to post-differentiation medium consisting of 10 μg/ml insulin in 10% FBS/DMEM.
AcE was partially dissolved in dimethyl sulfoxide (DMSO) and added to the culture medium to achieve a concentration of 50 μg/ml at Day 0 of differentiation and throughout the maturation phase (Days 6 or 7 (D6/7)). […]
Oil Red O Staining—Triglyceride content of D6/D7-differentiated 3T3-L1 cells was estimated with Oil Red O according to the method of Kasturi and Joshi [Kasturi, R. and Joshi, V. C. […] The resulting stained oil droplets were extracted from the cells with isopropanol and quantified by spectrophotometric analysis at 540 nm (MEL312e BIO-KINETICS READER, Bio-Tek Instruments, Winooski, Vt.).
Briefly, media were removed and cells were washed once with non-sterile PBS. […] After 15 min on an orbital shaker (DS-500, VWR Scientific Products, South Plainfield, N.J.) at ambient temperature, the cells were washed with 100 μL PBS followed by the addition of 100 μl PBS for reading for spectrofluorometric determination of BODIPY incorporation into the cells. […]

3T3-L1 adipocytes [2] = test: Adiponectin secretion from LPS-treated 3T3-L1 adipocytes; format: cell-based, murine; details: for induction of adiponectin secretion: any of the doses tested
3T3-L1 adipocytes [3] = test: Adiponectin secretion from TNFα-treated 3T3-L1 adipocytes; format: cell-based, murine
Experimental: For two days, the cells were allowed grow to reach confluence. […] (3) 0.5 μM dexamethasone and (4) 10 μg/ml insulin (MDI medium). […] Adiponectin Assay—The adiponectin secreted into the medium was quantified using the Mouse Adiponectin Quantikine® Immunoassay kit with no modifications (R&D Systems, Minneapolis, Minn.). […] Statistical Calculations and Interpretation—All assays were preformed in duplicate. […] Differences among the doses and test agents were determined using the Student's t-test without correction for multiple comparisons; the nominal five percent probability of a type I error was selected.

3T3-L1 adipocytes [4] = test: IL-6 secretion from LPS-treated 3T3-L1 adipocytes; format: cell-based, murine; details: with 100 ng LPS/ml, D5 3T3-L1 adipocytes
[5] = Non-fasting serum glucose and insulin in db/db diabetic mice; format: in vivo, mouse
Experimental: The Model—Male, C57BLKS/J m^+/m^+ Lepr^db (db/db) mice were used to assess the potential of the test materials to reduce fasting serum glucose or insulin concentrations.
Testing Procedure—Test substances were administered daily by gavage in 0.2% Tween-80. Serum was collected from the retroorbital sinus before the initial dose and ninety minutes after the third and final dose. Non-fasting serum glucose was determined enzymatically by the mutarotase/glucose oxidase method and serum insulin was determined by a mouse specific ELISA.
The Model—Male, C57BLKS/J m+/m+Leprdb (db/db) mice were used to assess the potential of the test materials to reduce fasting serum glucose or insulin concentrations.
Testing Procedure—Test substances were administered daily by gavage in 0.2% Tween-80. […] Non-fasting serum glucose was determined enzymatically by the mutarotase/glucose oxidase method and serum insulin was determined by a mouse specific ELISA.

3T3-L1 adipocytes [6] = test: Adiponectin secretion from insulin-resistant 3T3-L1 adipocytes; format: cell-based, murine
Experimental: 3T3-L1 cells were seeded at an initial density of 1×10^4 cells/cm^2 in 96-well plates. For two days, the cells were allowed grow to reach confluence. Following confluence, the cells were forced to differentiate into adipocytes by the addition of differentiation medium; this medium consisted of (1) 10% FBS/DMEM (high glucose); (2) 0.5 mM methylisobutylxanthine; (3) 0.5 μM dexamethasone and (4) 10 μg/ml insulin (MDI medium). From Day 3 through Day 5, the medium was changed to post-differentiation medium consisting of 10 μg/ml insulin in 10% FBS/DMEM.
Briefly, on Day 6, cells were maintained in serum-free media containing 0.5% bovine serum albumin (BSA) for three hours and then treated with 1 μg insulin/ml plus solvent or insulin plus test material. […] Twenty-four hours later, the supernatant medium was sampled for adiponectin determination.
Adiponectin Assay—The adiponectin secreted into the medium was quantified using the Mouse Adiponectin Quantikine® Immunoassay kit with no modifications (R&D Systems, Minneapolis, Minn.).
Statistical Calculations and Interpretation—All assays were preformed in duplicate. […] Differences between the doses were determined using the student's t-test without correction for multiple comparisons; the nominal five percent probability of a type I error was selected. […]

[7] = system: A549 pulmonary epithelial cells; test: PGE2 biosynthesis in A549 cells stimulated by mite dust allergen; format: cell-based, human; details: 10 μg/ml, mite allergen 1000 ng/ml
Experimental: The filtrate was termed mite dust allergen and used to test for induction of PGE2 biosynthesis in A549 pulmonary epithelial cells.
Mite allergen was added to the culture medium to achieve a final concentration of 1000 ng/ml. Eighteen hours later, the media were sampled for PGE2 determination.

COc1cc(O)c(CC=C(C)C)c(O)c1C(=O)/C=C/c1ccc(O)cc1 [Xanthohumol, xanthohumol]
adipogenic (lipogenic) response compared with controls (3T3-L1 adipocytes [1]): comparable to indomethacin and troglitazone

COc1ccc2c(c1)c(CC(=O)O)c(C)n2C(=O)c1ccc(Cl)cc1 [Indomethacin, indomethacin]
maximum adiponectin stimulation (3T3-L1 adipocytes [2]; LPS 100 ng/ml, […]): 9% | Concentration of maximum stimulation of adiponectin secretion (3T3-L1 adipocytes [2]; LPS-treated D5 3T3-L1 adipocytes): 2.50 µg/mL | adiponectin secretion (3T3-L1 adipocytes [3]; 0.5 ng TNFα/ml): dose-dependant decrease in adiponectin secretion | increase of adiponectin secretion in the presence of TNFα (3T3-L1 adipocytes [3]; 10 ng TNFα/ml, Example 16): 94% | optimal concentration for adiponectin secretion (3T3-L1 adipocytes [3]; 10 ng TNFα/ml, Example 16): 2.5 µg/mL | Adiponectin/IL-6 (3T3-L1 adipocytes [3]; 10 ng TNFα/ml, […]): 2.00* | Concentration providing the maximum inhibition of IL-6 secretion (3T3-L1 adipocytes [4]): 5.00 µg/mL

CN(CCOc1ccc(CC2SC(=O)NC2=O)cc1)c1ccccn1 (stereo not shown) [rosiglitazone]
Glucose [% Pretreatment] ([5]; db/db mice, non-fasting serum, 1.0 mg/kg-day by gavage, three days): 83.0# % Pretreatment

CC(C)CCC1=C(O)C(C(=O)C(C)C)=C(O)C(CCC(C)C)(CCC(C)C)C1=O [Hexahydrocolupulone (HHCL)]
Adiponectin/IL-6 (3T3-L1 adipocytes [6]; 50.0 μg/ml, ratio of adiponectin index to IL-6 index, insulin-resistant 3T3-L1): 0.60#

CCc1ccc(CCOc2ccc(CC3SC(=O)NC3=O)cc2)nc1 (stereo not shown) [Pioglitazone, pioglitazone]
optimal concentration for adiponectin secretion (3T3-L1 adipocytes [3]; 10 ng TNFα/ml, Example 16): 1.25 µg/mL | Concentration of maximum adiponectin secretion over four doses (3T3-L1 adipocytes [3]; 10 ng TNFα/ml, Example 17): 1.25 µg/mL | Concentration providing the maximum inhibition of IL-6 secretion (3T3-L1 adipocytes [4]): 5.00 µg/mL

CC(C)CCC1=C(O)C(C(=O)C(C)C)=C(O)C(CCC(C)C)(CCC(C)C)C1=O [Hexahydro colupulone, hexahydrocolupulone]
adipogenic (lipogenic) response compared with controls (3T3-L1 adipocytes [1]): failed to elicit a lipogenic response greater than the solvent controls | dose of maximal observed adiponectin secretion (3T3-L1 adipocytes [6]; four doses tested): 12.5 µg/mL

CN(C)C(=N)N=C(N)N [metformin]
serum glucose relative to the controls ([5]; three consecutive days): decreased both serum glucose and insulin concentrations

CC(=O)Oc1ccccc1C(=O)O [Aspirin, aspirin]
induction of adiponectin secretion (3T3-L1 adipocytes [2]; LPS 100 ng/ml): failed to induce adiponectin secretion

Beta acids
Percent PGE2 Inhibition [7]: 83% | adipogenic (lipogenic) response compared with controls (3T3-L1 adipocytes [1]): comparable to indomethacin and troglitazone

Cc1c(C)c2c(c(C)c1O)CCC(C)(COc1ccc(CC3SC(=O)NC3=O)cc1)O2 (stereo not shown) [Troglitazone, troglitazone]
maximum increase of adiponectin secretion from the TNFα solvent control (3T3-L1 adipocytes [3]; 10 ng/ml TNFα): 51% | Concentration providing the maximum inhibition of IL-6 secretion (3T3-L1 adipocytes [4]): 10.0 µg/mL

O=C(O)c1ccccc1O [salicylic acid]
induction of adiponectin secretion (3T3-L1 adipocytes [2]; LPS 100 ng/ml): failed to induce adiponectin secretion
